“And” between values parts separate entries of the source, which are not always exact repeats. Equal entries are not always repeated. Where two headings read alike, the source gives them in different places. Blank lines part the entries; values can stand above or below the compound they belong to.
How the values were obtained:
Hh signaling pathway [1] = assay: NIH3T3-GRE-Luc luciferase reporter assay (primary assay); format: cell-based
Text: NIH3T3 cells (CRL-1658, ATCC) were maintained in DMEM (Gibico) supplemented with 10% FBS (Hyclone). GRE-Luc plasmid was generated by inserting 8×Gli-1 responsive element (GRE) into the multiple cloning site of pGL4.26 vector (Promega). NIH3T3-GRE-Luc reporter cell line was established by hygromycin (Invitrogen) selection after transfected with GRE-Luc luciferase reporter plasmid. Single clones were validated by the induction of luciferase by recombinant sonic hedgehog (sHh) protein or small molecule agonist SAG (ABIN629346). Selected clone was used to monitor the Hh signaling.
(§1) The NIH3T3-GRE-Luc cells were maintained in complete culture medium (DMEM with 4 mM L-Gln, 1.5 g/L sodium bicarbonate and 4.5 g/L glucose supplemented with 100 μg/mL hygromycin and 10% FBS). When confluent, the cells were trypsinized and re-suspended in assay medium (0.5% serum-containing DMEM). After 100 µL/well of cells suspension was added to the 96-well-plate (Final cell concentration is 15,000 cells/well), cells were cultured for additional 48 hours before adding the compounds.
Compounds were serially diluted in DMSO and further diluted with assay medium. In an embodiment, 10 nM SAG was added in assay medium as the agonist of Hh signaling. After the compounds and agonist were prepared, the medium was removed carefully. 100 μL of assay medium containing compound and agonist was added to the cell with care. Cell plates were incubated at 37° C. for additional 48 hours.
(§2) Following the 48 hours incubation, 40 μL/well of luciferase media (Brigh-Glo, Promega) was added to the cells. The plate was incubated at room temperature for 5 minutes under gentle shaking. Luminescence signal was measured with plate reader (PHERAstar FS, BMG). The potency of compounds was calculated based on the inhibition of luminescence signaling.
NIH3T3 cells (CRL-1658, ATCC) were maintained in DMEM (11965, Gibico) supplemented with 10% FBS (Hyclone). GRE-Luc plasmid was generated by cloning 8×Gli-1 responsive element (GRE) into the MCS of pGL4.26 (Promega). NIH3T3-GRE-Luc reporter cell lines were established by hygromycin (Invitrogen) selection after transfection with GRE-Luc luciferase reporter plasmid. Single clones were validated for the assay quality with N-terminal fragment of recombinant sonic hedgehog protein or small molecule agonist SAG (ABIN629346). Selected clone were used to monitor the Hh signaling.
as §1, with “ug/ml” for “μg/mL”, “resuspended” for “re-suspended”, “ul/well” for “µL/well”
Compounds were serially diluted in DMSO and further diluted with assay medium. In an embodiment, 10 nM SAG was added in assay medium as the agonist of Hh signaling. After the compounds and agonist were prepared, carefully remove medium (Aspirate the medium with pipette instead of vacuum, or else the NIH3T3 cells monolayer will be detached). 100 ul of assay medium containing compound or agonist was added to the cell with care. Cell plates were incubated at 37 degree for additional 48 hours.
as §2, with “ul/well” for “μL/well”, “min” for “minutes”, “basing” for “based”

[2] = Rat pharmacokinetics experiments; format: in vivo, Sprague-Dawley rats; settings: for AUC(0-t): read-out: Area under the curve AUC0-24 h; for bioavailability: po
Procedure: Male Spraguee-Dawley rats (body weight: 220 g˜250 g) were purchased from Slac Laboratory Animals (Shanghai). […] Blood samples were taken through the posterior orbital vein and the blood samples were placed in a tube containing EDTA (as an anticoagulant) and stored in a −80° C. environment after centrifugation with a refrigerated centrifuge. Blood sample (at an amount of folds of 25 μL) was taken and cold acetonitrile containing the internal standard (100 μL) was added. Sample was centrifuged for 10 minutes to precipitate the plasma protein. Finally, supernatant (10 μL) was injected into the LC-MS/MS system for analysis.
LC-MS/MS analysis method: All samples were analyzed by LC-MS/MS system of API4000 QTRAP mass spectrometer equipped with LC-20AD and CBM-20A controllers, DGU-20A solvent degasser and SIL-20A autosampler (Japan Shimadzu, Colombia, Md., USA). A Bona Aeger Venusil XBP C18 column (50×2.1 mm; filler 5 micron particle size) was used for HPLC separation. The column temperature was maintained at 40° C. The flow rate was 0.3 mL/min and the total run time was 6 minutes.
For the quantification of MS/MS, the API4000 QTRAP mass spectrometer was operated in an ESI positive mode with multiple reaction monitoring (MRM). All compounds and internal standards were set to be monitored during a residence time of 100 milliseconds. The other MS/MS parameters were set as follows: atomization gas (GS1) at 30 psi, 551b turbine pressure, 4500V ion spray voltage, 500° C. ion source temperature. For the selected ion transitions, each analyte was tested at the optimal sensitivity of the cluster potential (DP) and the collision energy (CE). Finally, the data was collected and processed using AB SCIEX Analysist 1.5.2 data collection and integration software.
Test subjects, Sprague-Dawley rats (body weight from about 220 g to about 250 g), were purchased from Slac Laboratory Animals (Shanghai, China). All compounds tested at 1 mg/mL concentration, either intravenous injected at a tail vein at 1 mL/kg dosage for one group of test subjects or administered orally at a dose of 10 mL/kg in another group of test subjects. Then aliquots of blood samples were collected by retro-orbital venous plexus puncture at time intervals after the injection/administration. The blood samples were kept in tubes containing EDTA, centrifuged and stored at −80° C. before analysis. Blank plasma was collected by the same method before rats were treated with compounds. Plasma samples for analysis were obtained by removing about 25 μL from the saved blood sample; adding cold acetonitrile (about 100 μL) as internal standard; centrifuged for 10 minutes to precipitate plasma proteins; and collect about 10 μL of the upper clear solution for analysis done by an LC-MS/MS system.
All samples were analyzed by an API 4000 QTRAP® LC/MS/MS System equipped with Shimadzu LC-20AD pump, Shimadzu CBM-20A controller, SIL-20A autosampler and DGU-20A degasser (Shimadzu, Columbia, Md., USA). A Venusil XBP C18 HPLC Column (2.1×50 mm, 5 μm) (Bonna-Agela Technologies) was used for HPLC separation at isocratic temperature of 40° C. Flow rate was kept at 0.3 mL/min and the total run time was kept at 6 minutes.
Quantification by MS/MS is done using the above-described API 4000 QTRAP mass spectrometer equipped with multiple reaction monitoring (MRM) and positive electrospray ionization (ESI+) modes. All compounds and internal standard were detected at […] of about 100 milliseconds. Other parameters for MS/MS are shown below: Ion Source Gas 1 (GS1) at 30 psi, turbine pressure at 55 pounds, ion spray voltage at 4500 V, and ion source temperature at 500° C. MRM measurements of the analytes were performed using declustering potential (DP) and […] values optimized for each analyte. Finally, all of the operations, the acquisition and analysis of data were controlled by Analyst (version 1.5.2, AB Sciex, USA).

Hh signaling pathway [3] = settings: cited from earlier work
[4] = Oxidative metabolism found in pharmacokinetic studies; settings: benzylic oxidation at the C-5 methylene group
[5] = IC50 value of Vismodegib over that of the tested compound in the same assay
[6] = primary assay, Table 5, read-out: SMO IC50
[7] = previous patent, read-out: IC50 of NIH3T3-GRE-Luc, reported in WO2014113191A1

IC50 (Hh signaling pathway [1]; [6]): 2.2 nM
SMILES: Cc1cnc(-c2cc(N3CCc4nc(NC5CC5)ncc4[C@H]3C)ncc2Cl)c(C)c1 [Compound B4, (R)-6-(5′-Chloro-3,5-dimethyl-[2,4′-bipyridin]-2′-yl)-N-cyclopropyl-5-methyl-5,6,7,8-tetrahydropyrido[4,3-d]pyrimidin-2-amine]
Ratio (Hh signaling pathway [1]; [5]): 8.1

IC50 (Hh signaling pathway [1]; [6]): 4.2 nM
SMILES: Cc1cnc(-c2cc(N3CCc4nc(N5CCC(O)C5)ncc4C3C)ncc2Cl)c(C)c1 (stereo not shown) [D]
Ratio (Hh signaling pathway [1]; [5]): 3.2

IC50 (Hh signaling pathway [1]; [6]): 272 nM
SMILES: Cc1cnc(-c2cc(N3CCc4nc(N5CCC(O)C5)ncc4C3=O)ncc2Cl)c(C)c1 (stereo not shown) [C]
Ratio (Hh signaling pathway [1]; [5]): 0.16

AUC0-24 h ([2]; I.V., 2 mg/kg): 1780 ng·h/mL
CL ([2]; I.V., 2 mg/kg): 18.6 mL/min/kg
t1/2 ([2]; I.V., 2 mg/kg): 1 h
AUC0-24 h ([2]; P.O., 10 mg/kg): 5540 ng·h/mL
Vd ([2]; male, Sprague-Dawley, plasma, intravenous injection, 2 mg/kg, read-out: Apparent volume of distribution Vd, ss): 1.7 L/kg
AUC(0-t) ([2]; male, Sprague-Dawley, plasma, intravenous injection, 2 mg/kg): 1780 ng·h/mL
clearance ([2]; male, Sprague-Dawley, plasma, intravenous injection, 2 mg/kg, read-out: Clearance CL): 18.6 mL/min/kg
half-life ([2]; male, Sprague-Dawley, plasma, intravenous injection, 2 mg/kg, read-out: Half-life t1/2 (converted)): 1 h
AUC(0-t) ([2]; male, Sprague-Dawley, plasma, oral, 10 mg/kg): 5540 ng·h/mL
Cmax ([2]; male, Sprague-Dawley, plasma, oral, 10 mg/kg, read-out: Maximum plasma concentration Cmax): 2180 ng/mL
Tmax ([2]; male, Sprague-Dawley, plasma, oral, 10 mg/kg, read-out: Peak time Tmax): 0.5 h
bioavailability ([2]; male, Sprague-Dawley, plasma, 10 mg/kg, P.O. 10 mg/kg vs I.V. 2 mg/kg, read-out: F %): 62%
bioavailability ([2]; male, Sprague-Dawley, plasma, 10 mg/kg, oral 10 mg/kg vs intravenous 2 mg/kg, read-out: Bioavailability F %): 62%
bioavailability ([2]; male, Sprague-Dawley, plasma, 10 mg/kg, oral, read-out: bioavailability): 62%
SMILES: Cc1cnc(-c2cc(N3CCc4nc(N5CCC(O)CC5)ncc4C3)ncc2Cl)c(C)c1 [Compound A-55, reference compound]
IC50 (Hh signaling pathway [3]; [7]): 5.5 nM
susceptibility to oxidative metabolism (in words) [4]: easy to metabolized via benzylic oxidation

IC50 (Hh signaling pathway [1]; [6]): 4 nM
SMILES: Cc1cnc(-c2cc(N3CCc4nc(NC5CC5)ncc4[C@@H]3C)ncc2Cl)c(C)c1 [Compound B3, (5 S)-6-[5-chloro-4-(3,5-dimethyl-2-pyridyl)-2-pyridyl]-N-cyclopropyl-5-methyl-7,8-dihydro-5H-pyrido[4,3-d]pyrimidin-2-amine]
Ratio (Hh signaling pathway [1]; [5]): 3.1

Hh pathway inhibitory activity (in words) (Hh signaling pathway [1]): relatively poor
IC50 (Hh signaling pathway [1]; 48 h, 10 nM SAG as agonist, 48 hours, read-out: Effect IC50 (nM)(GRE reporter assay)): 17 nM
IC50 (Hh signaling pathway [1]; [6]): 17 nM
SMILES: Cc1cnc(-c2cc(N3CCc4nc(N5CCC(O)CC5)ncc4[C@@H]3C)ncc2Cl)c(C)c1 [Compound B2, (S)-1-(6-(5′-chloro-3,5-dimethyl-[2,4′-bipyridin]-2′-yl)-5-methyl-5,6,7,8-tetrahydropyrido[4,3-d]pyrimidin-2-yl)piperidin-4-ol]
Ratio (Hh signaling pathway [1]; IC50 of vismodegib over that of the tested compound in the same assay): 1.1
Ratio (Hh signaling pathway [1]; [5]): 1.1

IC50 (Hh signaling pathway [1]; [6]): 3.9 nM
SMILES: Cc1cnc(-c2cc(N3CCc4nc(NC(=O)C(C)(C)C)ncc4[C@H]3C)ncc2Cl)c(C)c1 [Compound B6, (R)—N-(6-(5′-chloro-3,5-dimethyl-[2,4′-bipyridin]-2′-yl)-5-methyl-5,6,7,8-tetrahydropyrido[4,3-d]pyrimidin-2-yl)pivalamide]
Ratio (Hh signaling pathway [1]; [5]): 6.7

IC50 (Hh signaling pathway [1]; [6]): 7.7 nM
SMILES: Cc1cnc(-c2cc(N3CCc4nc(NCC5CC5)ncc4C3C)ncc2Cl)c(C)c1 (stereo not shown) [E]
Ratio (Hh signaling pathway [1]; [5]): 1.74

SMILES: Cc1cnc(-c2cc(N3CCc4nc(N5CCC(O)CC5)ncc4C3=O)ncc2Cl)c(C)c1 [Compound A-97]
ratio to vismodegib (relative efficacy), WO2014113191A1 (Hh signaling pathway [3]; previous patent): about 0.5 fold
ratio to vismodegib (relative efficacy), WO2014113191A1 (Hh signaling pathway [3]; previous patent, listed as A97): 0.54 fold
IC50 (Hh signaling pathway [3]; [7]): 84 nM

IC50 (Hh signaling pathway [1]; [6]): 75 nM
SMILES: CCC(=O)Nc1ncc2c(n1)CCN(c1cc(-c3ncc(C)cc3C)c(Cl)cn1)[C@@H]2C [Compound B5, (R)—N-(6-(5′-chloro-3,5-dimethyl-[2,4′-bipyridin]-2′-yl)-5-methyl-5,6,7,8-tetrahydropyrido[4,3-d]pyrimidin-2-yl)propionamide]
Ratio (Hh signaling pathway [1]; [5]): 0.35

IC50 (Hh signaling pathway [1]; vismodegib control in the same assay as the test compound of the line, read-out: Effect IC50 (nM)(GRE reporter assay: vismodegib)): 13.4 nM and 17.9 nM and 19.3 nM
IC50 (Hh signaling pathway [1]; vismodegib control in the same assay as the test compound of the line, read-out: SMO IC50 (nM) (vismodegib)): 26 nM
SMILES: CS(=O)(=O)c1ccc(C(=O)Nc2ccc(Cl)c(-c3ccccn3)c2)c(Cl)c1 [vismodegib, reference compound]
IC50 (Hh signaling pathway [3]; reference in the run of A-55 (8.8) and of A-97 (45), read-out: IC50 of reference vismodegib, reported in WO2014113191A1): 8.8 nM and 45 nM

IC50 (Hh signaling pathway [1]; [6]): 4.4 nM
SMILES: Cc1cnc(-c2cc(N3CCc4nc(NC5CC5)ncc4C3C)ncc2Cl)c(C)c1 (stereo not shown) [F]
Ratio (Hh signaling pathway [1]; [5]): 4.5

Reference: patent US10919889B2, “Chiral heterocyclic compound with hedgehog pathway antagonist activity, method and use thereof” (SUZHOU KINTOR PHARMACEUTICALS, INC., priority 2016, dated 2021)
